This is an account of results in patent US20210128675A1, “LHRH-PACLITAXEL CONJUGATES AND METHODS OF USE” (priority 2019, published 2021).

“Also recorded” adds a separate entry of the source.

The subject of data set [1] is knocked down LHRH receptors of breast cancer cells. Nature of the data set: alamar blue reduction after siRNA knockdown of LHRH receptors. It counts as cell-based, human. The settings on record: cells treated with siRNAs; 5 μM; 24, 48 and 72 hours.
Data set [2] has as its system MDA-MB-231 human triple negative breast cancer cells xenograft. Briefly: subcutaneous xenograft tumor shrinkage study. It counts as in vivo, Athymic Nude-Foxn1nu strain mice. The following applies: for tumor volume, 21-day group: after about two weeks, mean volume before treatment 98 mm^3; for xenograft tumor size, 28-day group: two weeks of drug administration, mean volume before treatment 230 mm^3; for tumor outcome, early stage (day 14 group): 10 mg/kg. Here is the method:
In this section, cell culture, tumor induction and drug injection studies were carried out. First, 20 μl of 1×10^6 MDA-MB-231 human triple negative cancer cells were cultured in T75 tissue culture flasks (CELLTREAT, Pepperell, Mass., USA). This was carried out at 37° C. until 70% confluence was reached. The cells were grown under normal atmospheric pressure levels in a “L15′ medium” that is typically made up of: L-15 medium (ATCC, Manassas, Va., USA), supplemented with 100 I.U./ml penicillin/100 µg/ml streptomycin and 10% FBS (ATCC, Manassas, Va., USA).
Forty 4-weekold Athymic Nude-FoxnInu strain mice with individual weights of ˜17 g each was purchase from Envigo (Somerset, N.J., USA). These animals were approved for use in the current work by the University of Massachusetts Medical School Institutional Animal Care and Use Committee (UMMS IACUC) with docket #A2630-17. All of the animals were maintained and used according to the approved UMMS IACUC procedure and guideline.
Subcutaneous tumor xenografts were induced by the injection of 5.0×10^6 of MDA-MB-231 human triple negative breast cancer cells (suspended in sterile saline) into the interscapular region (for a better angiogenic response). Tumor formation was carefully assessed by palpation. Tumor growth was then monitored daily with the digital calipers. The tumor volume was calculated using the following modified ellipsoidal formula: […]
where length was the longest axis of the tumor and width is the measurement at a right angle to the length.
The mice were randomly chosen in groups of three (for each drugs injection) into their respective treatment groups. These include groups of mice with early stage (14 days after tumor induction), mid stage (21 days after tumor induction) and late stage (28 days after tumor induction) tumors. The weights of the mice and their tumor sizes were monitored and measured (using digital calipers) on a daily basis. These precise volumes and measured weights of the mice were used to guide the administration of the drugs. They were also used to monitor toxicity and side effects associated with the drugs. For each of the study groups, 3 mice each were randomly assigned to injection of 10 mg/kg of the specific drug configuration (PTX, [D-Lys6]LHRH-conjugated PTX and DMSO).
Different groups of mice were injected intravenously with each drug through their tail veins. This was done after tumor growth for 14, 21 and 28 days. The mice were injected with 10 mg/kg per week, during the two-week periods in which the effects of drugs were investigated. Following each drug administration, the tumor sizes were monitored with calipers on a daily basis (every 24 hours). In this way, the possible tumor shrinkage, growth or elimination, were monitored on a daily basis. Furthermore, the health status of the mice was monitored on a daily basis. This was done by monitoring the mice for signs of weight loss or altered motor ability in their cages. At the end of study, the mice were euthanized, following the approved IACUC guidelines and procedures. Thereafter, tumor tissues were excised from all of the mice, including tissues from their major organs (kidneys, spleen, liver and lungs).

A further data set deals with MDA MB 231 cells. Briefly: alamar blue cell viability and cytotoxicity assay. In kind it is cell-based, human. Here is the method:
The alamar blue cell viability and cytotoxicity assay was used to study the MDA MB 231 cells lines in the log phase of growth. MDA MB 231 cells were harvested with trypsin-EDTA in the presence of Dulbecco Phosphate Buffer (DPBS). 10^4 cells/well were then seeded in 12-well plates in L15+ medium (L15 medium with cell medium supplement of FBS and penicillin/streptomycin). After a 3-hour attachment period (of the cells), respective concentrations of 15 μM, 25 μM and 30 μM of paclitaxel, LRH-conjugated paclitaxel (of Example 1) and DMSO (in culture medium) were added to the 12-well plates consisting of 10^4 cells. Cell viability was monitored using the alamar blue cell viability and cytotoxicity reagent (Thermo Fisher Scientific, Waltham, Mass., USA) at times of 0 h, 18 h, 24 h, 48 h and 72 h, following drug addition. At each time point, the culture medium was replaced with 1 ml of 10% alamar blue solution (in culture medium). The 12-well plates were then incubated at 37° C. for different durations. After each time point, 100 µl of the solution incubated with alamar blue solution (ABS) was transferred into triplicate wells of a black opaque 96-well plate (Thermo Fisher Scientific, Waltham, Mass., USA).
The fluorescence intensities of the cell medium supernatant incubated with ABS were measured at 544 nm excitation and 590 nm emission using a 1420 Victor3 multi-label plate reader (Perkin Elmer, Waltham, Mass., USA). The percentage of alamar blue reduction, the percentage difference in cell population between the treated and untreated cells, and the percentage of cell growth inhibition, were determined using a combination of the ABS and cell viability studies. […]
where, FIsample=fluorescence intensity of the (treated or untreated) cells, FI10% AB=fluorescence intensity of 10% alamar blue reagent (negative control) and FI10% R=fluorescence intensity of 100% reduced alamar blue (positive control).
FItreated=fluorescence intensity of treated cells and FIcells=fluorescence intensity of untreated cells

Another data set has as its system MDA-MB-231 cells. Nature of the data set: confocal fluorescence imaging of cellular uptake and cytotoxicity. It counts as cell-based, human. The following applies: 30 μM, 6 hours.
The test system of data set [3] is triple negative breast tumor. Nature of the data set: drug-tissue adhesion study (drug-coated AFM tip). In kind it is binding, mice. As for the experimental part: In an effort to understand the specificity in the targeting of triple negative breast cancer via the receptors that are over-expressed on the tumor, adhesion measurements were carried out on the control xenograft tissue samples at different stages of tumor development. Adhesion forces and interactions (between the different drug molecules and receptors on the surfaces of the tumor tissues at different stages of development) were explored in an effort to understand the interactions of the drugs with the tumor and non-tumor tissue.
Antigen retrieval was carried out on the fixed tissue. This involved exposing target antigens to receptors on a […] thick microtome tissue slice. These sliced tissues were prepared for adhesion measurements in an Asylum MFP3D-Bio Atomic Force Microscope (AFM) (Asylum Research, Oxford Instrument, CA, USA). The AFM tips RESP-20 AFM tip (Bruker Santa Barbara, Calif., USA) were dip-coated with paclitaxel or [D-Lys6]LHRH-conjugated paclitaxel using the techniques described in Obayemi et al. (J. Mech. Behav. Biomed. Mater., 68 (2017), pp. 276-286).
A simple AFM tip dip-coating technique (J. D. Obayemi et al. Materials Science and Engineering C. 66, (2016), 51-65, Hampp, E. et al. Res. 27 (22), 2891, Hutter, J. L. et al. Instrum. 64, 1868) (of the drugs) was used to coat the AFM tips at room-temperature (˜23° C.). In addition, a positive control of LHRH peptides was coated onto the AFM tips and used to determine the adhesion forces between the receptors on breast cancer tissue. All of the coated AFM tips were air-dried for about 6 h and kept in a desiccator overnight before the adhesion measurements.
The spring constants of the coated and uncoated AFM tips were measured experimentally using the thermal tune method (J.D. Obayemi, et al. Mater., 68 (2017), 276-286). This was done to obtain the actual spring constants that were used to calculate the pull-off forces from Hooke's law. The adhesion interactions were measured for the following configurations of coatings on the AFM tips and breast cancer tumor at different stages on the mice: […]

The nature of data set [4]: histopathological and toxicity studies. The settings on record: 10 mg/kg weekly for two weeks; for qualitative toxicity (mortality, body weight, clinical signs): tumor-bearing mice.
Protocol: Double doses of 10 mg/kg of PTX and PTX-[D-Lys6]LHRH were then administered (on a weekly basis for two weeks) to female athymic nude mice that were subcutaneously-induced with TNBC. In this way, qualitative toxicity was studied by considering differences in mortality, changes in body weight, clinical signs, gross observations and the histopathology of the lungs, kidneys and the liver at different stages of tumor development. This was done for the different drugs and cancer treatment durations. Daily observations and weight measurements were also used to check for possible animal reactions to the drugs, physiological changes, weight loss/gain, and the general well-being of the mice.
Hematoxylin and eosin (H and E) staining was also carried out. This was used for the identification of tumor necrosis and the examination of histologic changes that occurred in vital organs, following the administration of the drugs. Briefly, formalin-fixed, paraffin-embedded tissue/organs (tumor, kidneys, liver and lungs) samples (5 m) were injected with PTX, [D-Lys6]LHRH-conjugated PTX drugs and DMSO. These were hydrated by passing them through decreasing concentrations (100, 90 &70%) of alcohol baths and water.
The hydrated tissue sections were then stained in hematoxylin solution for 5 mins. This was followed by rinsing with tap water for 3 minutes and differentiation in 1% acid alcohol for 5 minutes. Tap water was then used to rinse (three times) before dipping the sections in ammonia water for 2 minutes. This was followed by staining with eosin for 10 mins. The treated sliced samples were dehydrated in solution with increasing concentrations of alcohols followed by xylene. Finally, a few drops of Permount Mounting Medium were used to mount the resulting samples. The stained slides were then imaged with a 20× objective lens using a TS100F Nikon microscope (Nikon Instruments Inc., Melville, N.Y., USA) coupled with a DS-Fi3 C camera.
The mark [5] stands for this setting: 10 mg/kg per week IV, two weeks.

`CC(=O)O[C@H]1C(=O)[C@@]2(C)[C@H]([C@H](OC(=O)c3ccccc3)[C@]3(O)C[C@H](OC(=O)[C@H](O)[C@@H](NC(=O)c4ccccc4)c4ccccc4)C(C)=C1C3(C)C)[C@]1(OC(C)=O)CO[C@@H]1C[C@@H]2O` [PTX, paclitaxel]: the “cell viability, PTX versus LHRH-conjugated PTX” value in data set [1] is “no significant differences in cell viability”. Also, in data set [2] (10 mg/kg per week IV), the “tumor volume, 21-day group” value is 86.83 mm^3 and the “xenograft tumor size, 28-day group” value was 299.2 mm^3. For the same molecule, the “final tumor sizes, day 14 group” value in data set [2] (two IV injections (one per week) of 10 mg/kg, mean volume before treatment 67 mm^3) is about 49.1 mm^3.

For LHRH-PTX, the “percentage cell growth inhibition” value in the data set on MDA MB 231 cells (15 μM, 25 μM, and 30 μM, 72 h) is listed as “effective at inhibiting the growth of MDA MB 231 cells”. The “cytotoxicity on coincubation with LHRH” value in the data set with MDA MB 231 cells (coincubation of LHRH, 72 h) is “decreased the cytoxicity”. Besides, the “cell viability (percentage alamar blue reduction) compared with unconjugated drug” value in the data set with MDA MB 231 cells (without siRNA, 18, 24, 48 and 72 h) is “significantly reduced cell viability than the unconjugated drugs”. For the same molecule, the “cell viability, PTX versus LHRH-conjugated PTX” value in data set [1] is reported as “no significant differences in cell viability”. In the data set with MDA-MB-231 cells, the “disruption of actin filaments, vinculin structures and cell membranes” value is given as “more evident”. Further, in data set [3], the “adhesion force relative to unconjugated PTX, early stage tumor” value is given as “nearly three times”; the “adhesion force relative to unconjugated PTX, late stage tumor” value is “about 2 times”; the “adhesion force relative to unconjugated PTX, mid stage tumor” value is given as “more than three times”. Besides, the “tumor outcome, mid- and late-stage tumors (21 and 28 days)” value in data set [2] (10 mg/kg IV) is “significant shrinkage”. Moreover, in data set [2] (setting [5]), the “decrease in xenograft volume compared to unconjugated PTX, 21-day group” value was 91% and the “percentage reduction in xenograft tumor volume compared to unconjugated PTX, 28-day group” value was 90.2%. Moreover, the “structural changes in tumor cells/tissue (TEM)” value in data set [2] (21-day and 28-day treatment groups) was “greater structural changes”. Moreover, in data set [2] (10 mg/kg per week IV), the “tumor volume, 21-day group” value was 7.76 mm^3 and the “xenograft tumor size, 28-day group” value is recorded as 29.4 mm^3. For the same molecule, in data set [2] (compared with unconjugated PTX), the “necrosis in tumor tissue (H&E)” value is given as “higher levels of necrosis in the tumors”. The “tumor outcome, early stage (day 14 group)” value (“tumor outcome, early stage” for short) in data set [2] (two IV injections (one per week) of 10 mg/kg, listed as LHRH-conjugated paclitaxel) was “elimination of early stage breast tumors”. For the same molecule, the “tumor outcome, early stage” value in data set [2] (two IV injections (one per week) of 10 mg/kg, listed as [D-Lys6]LHRH-conjugated PTX) is reported as “eliminated”. In addition, in data set [2] (two IV injections (one per week) of 10 mg/kg, listed as [D-Lys6]LHRH-conjugated paclitaxel), the “tumor outcome, early stage” value is “eliminated the tumors”. The “qualitative toxicity (mortality, body weight, clinical signs)” value in data set [4] is “No clinical signs, differences in mortality, or changes in body weight”. For the same molecule, the “qualitative toxicity (mortality, body weight, clinical signs)” value in data set [4] (listed as [D-Lys6]LHRH-conjugated paclitaxel) is recorded as “without any evidence of toxicity”. The “histopathology of liver, lung and kidneys (H&E)” value in data set [4] (listed as [D-Lys6]LHRH-conjugated PTX) was “no significant histological or significant pathological changes; also recorded: no evidence of liver cell hyaline degeneration and necrosis, and no pulmonary edema or hyperplasia observed in the lungs”.
